From patent US20020086832A1, “Caspase inhibitors for inhibiting blood cell proliferation and for treating autoimmune diseases” (APOTECH RESEARCH AND DEVELOPMENT LTD., priority 1999, published 2002)
“Also recorded” adds a separate entry of the source.

Legend:
Assay type in all cases: cell-based
[1] = tested on: human peripheral blood lymphocytes; assay: Proliferation of human PBL/T-cells stimulated with anti-CD3 antibodies, [3H] thymidine incorporation; settings: for inhibition of the stimulation (cell proliferation) brought about by the anti-CD3: human PBL, inhibitor 25 to 100 μM, four-day cultivation; for inhibition of the stimulation (cell proliferation) brought about by the anti-CD3 / effect on cell proliferation (cpm, [3H] thymidine incorporation): FIG. 1; for effect on cell proliferation (cpm, [3H] thymidine incorporation): human T-cells, 10 μg/ml soluble anti-CD3 antibodies, inhibitor concentrations above 25 μM
Experimental: For this purpose the T-cells were stimulated with 10 μg/ml soluble anti-CD3 antibodies in the presence of various caspase inhibitors. […] Plotted, the proliferation of the stimulated T-cells (cpm, measured by [^3H] thymidine incorporation) is found as a function of increasing concentrations of caspase inhibitors.
This means that the activity of caspase-8 is significant for the IL-2 production of T-cells. In the experiments on which FIG. 5 is based, PBL were activated with 10 μg/ml soluble anti-CD3 antibody in the presence or absence of zVAD-fink (50 μM) and in the presence of anti-CD3 antibody zVAD-fmk and 500 U/ml recombinant human IL-2, respectively.
For this purpose, the latter were prepared through Ficoll-Hypaque centrifugation. The cells (5×10^4 cells per well) were then cultivated on 96-well plates in the presence of different caspase inhibitors or, for control purposes, in their absence. The concentration of the caspase inhibitors was varied in a range of 25 to 100 μM. Finally, the cells were stimulated through anti-CD3 antibodies (TR66) or through a combined stimulation with anti-CD3 antibodies and soluble recombinant FasL with or without anti-FLAG sequence antibodies 1 μg/ml.
Cell proliferation was measured during the last 18 hours of the four-day cultivation period. The measuring variable for cell proliferation was the incorporation of [^3H] thymidine into the proliferating cells.

[2] = target: T1, caspase-8 (Homo sapiens, UniProt Q14790); assay: Western blot of procaspase-8 cleavage in lysates of stimulated human T-lymphocytes; settings: anti-CD3 antibody and crosslinked sFasL, 6 hours, IETD-fmk 50 μM; FIG. 6
T1 construct: procaspase-8, 55 kDa fraction, or proteolytically cleaved, active caspase-8, 26 kDa fraction, respectively; endogenous in cells; host or cells: human T-lymphocytes stimulated with anti-CD3 antibody and crosslinked sFasL
T1 sequence (Q14790 whole entry): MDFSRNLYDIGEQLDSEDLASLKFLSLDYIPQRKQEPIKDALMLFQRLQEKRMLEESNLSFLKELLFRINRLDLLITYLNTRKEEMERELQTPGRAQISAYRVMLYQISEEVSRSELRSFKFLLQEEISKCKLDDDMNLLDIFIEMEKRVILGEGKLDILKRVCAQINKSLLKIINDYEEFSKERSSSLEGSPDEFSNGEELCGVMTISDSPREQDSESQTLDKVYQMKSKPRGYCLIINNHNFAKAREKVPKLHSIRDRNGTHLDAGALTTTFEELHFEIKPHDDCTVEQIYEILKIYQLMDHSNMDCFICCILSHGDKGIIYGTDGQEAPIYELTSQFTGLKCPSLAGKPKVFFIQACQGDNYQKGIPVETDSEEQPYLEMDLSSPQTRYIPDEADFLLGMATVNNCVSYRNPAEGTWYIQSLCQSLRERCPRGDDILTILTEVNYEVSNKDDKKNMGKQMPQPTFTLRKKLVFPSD
Experimental: FIG. 6 provides a Western blot. Human T-cells were cultivated either without stimulation (control), with soluble anti-CD3 antibody alone (3 μg/ml), or with anti-CD3 antibody and sFasL (50 ng/ml) which, as described above, is crosslinked via its FLAG sequence. The cell lysates were examined in accordance with the times shown in FIG. 6, with regard to the expression of procaspase-8 or of cleavage products of the procaspase-8.
In a further experimental approach, T-cells were stimulated with a combination of anti-CD3 antibodies and FasL for a period of 6 hours, namely in the presence of 50 µM of the caspase-8 inhibitor IETD-fmk.
After 0, 2, 4, 6 and 22 hours, cells were taken from the different preparations and lysated. The cell lysates were examined with the Western blot technique with respect to their caspase-8 activity (procaspase-8, 55 kDa fraction, or proteolytically cleaved, active caspase-8, 26 kDa fraction, respectively).

[3] = tested on: IL-2 production of T-lymphocytes; assay: IL-2 concentration in supernatants of stimulated T-lymphocytes/PBL, CTLL bioassay; settings: FIG. 4; for suppression of IL-2 production: anti-CD3 antibody stimulation (3 μg/ml immobilized), inhibitors 50 µM, supernatants after 24 hours; for IL-2 activity in supernatants / T-cell proliferation as reflected by IL-2 concentration in supernatants: immobilized anti-CD3 antibody (3 μg/ml) with or without crosslinked FasL (50 ng/ml)
Experimental: FIG. 4 illustrates the correlation of IL-2 expression and the use of caspase inhibitors using a bar diagram. […] The findings shown in FIG. 4 are based on experiments in which 106 ^6 PBL/ml were cultivated with immobilized anti-CD3 antibody (3 μg/ml) and FasL ([…]) in the presence or absence of the caspase inhibitors referred to above (50 µM). The supernatants were removed after 24 hours and examined with the help of a CTLL bioassay for their IL-2 concentration.
For this purpose, T-lymphocytes (10^6/ml) were stimulated with immobilized antiCD3 antibody (3 μg/ml) with or without crosslinked FasL (50 ng/ml). The supernatants of these preparations with a caspase inhibitor or without a caspase inhibitor as control were removed after the stimulation period and their respective IL-2 concentration was measured using a CTTL bioassay. The IL-2 concentration in the supernatants reflects the T-cell proliferation.

Substance	inhibition of the stimulation (cell proliferation) brought about by the anti-CD3 [1]	effect on cell proliferation (cpm, [3H] thymidine incorporation) [1]	active 26 kDa caspase-8 fraction/band in Western blot [2]	proteolytic cleavage of caspase-8 during stimulation [2]	suppression of IL-2 production [3]	IL-2 activity in supernatants [3]	T-cell proliferation as reflected by IL-2 concentration in supernatants [3]	cell proliferation with inhibitor plus exogenous recombinant human IL-2 ([1]; PBL, 10 μg/ml soluble anti-CD3 antibody, zVAD-fmk 50 μM and 500 U/ml IL-2, FIG. 5)	number of cells as against the control ([1]; PBL, 10 μg/ml soluble anti-CD3 antibody, zVAD-fmk 50 μM, FIG. 5)
IETD-fmk	complete inhibition	clear inhibiting effect	cannot be detected; also recorded: does not lead to any 26 kDa band being detected	effectively blocked	particularly effective	only weak	blocks		
zVAD-fmk	complete inhibition; also recorded: partial inhibition	clear inhibiting effect			particularly effective	only weak	blocks	increases dramatically	clear reduction
